Measurements from PMC8611036, “An integrated method for optimized identification of effective natural inhibitors against SARS-CoV-2 3CLpro” (Scientific Reports, 2021).
Read-outs that look alike come from different tables or passages of the source.

Key:
SARS-CoV-2 3CLpro [1] = biological target: T1, SARS-CoV-2 3CLpro (Severe acute respiratory syndrome coronavirus 2, UniProt P0DTD1); experiment: Surface plasmon resonance analysis (Biacore T200); type: binding
SARS-CoV-2 3CLpro [2] = biological target: T1, SARS-CoV-2 3CLpro; experiment: SARS-CoV-2 3CLpro inhibition assay (fluorogenic substrate Dabcyl-[…]-Edans); type: biochemical
SARS-CoV-2 3CLpro [3] = biological target: T1, SARS-CoV-2 3CLpro; settings: cited from earlier work; for IC50: unit not printed (pIC50 corresponds to µM)
SARS-CoV-2 3CLpro [4] = biological target: T1, SARS-CoV-2 3CLpro; experiment: Literature-collected IC50 of SARS-CoV-2 3CLpro inhibitors (test set); type: biochemical; settings: class from pIC50 of the literature IC50
[5] = ref TCMSP database, cited from earlier work; for HBA: number of hydrogen-bond acceptors; for HBD: number of hydrogen-bond donors; for OB (%): oral bioavailability
SARS-CoV 3CLpro [6] = type: biochemical; settings: activity class by pIC50 threshold 6
SARS-CoV 3CLpro [7] = settings: SARS-CoV 3CLpro inhibitors (training set), ref: per compound, cited from earlier work
[8] = from literature IC50, ref Jo, Seri et al. Journal of enzyme inhibition and medicinal chemistry vol. 35,1 (2020): 1539-1544
[9] = ref Jo, Seri et al. Journal of enzyme inhibition and medicinal chemistry vol. 35,1 (2020): 1539-1544
[10] = SPR, 25 °C, 3CLpro-his captured on CM7 chip, read-out: KD
[11] = SARS-CoV-2 3CLpro in vitro dose–response inhibition, read-out: IC50
[12] = from literature IC50, ref Zhu, Wei et al. ACS pharmacology & translational science vol. 3,5 (2020): 1008-1016
[13] = ref Zhu, Wei et al. ACS pharmacology & translational science vol. 3,5 (2020): 1008-1016

O=C(/C=C/c1ccc(O)c2c1[C@H](C(=O)O[C@H](Cc1ccc(O)c(O)c1)C(=O)O)[C@@H](c1ccc(O)c(O)c1)O2)O[C@H](Cc1ccc(O)c(O)c1)C(=O)O [MOL007060]
Kd (SARS-CoV-2 3CLpro [1]): 64 µM

O=c1cc(-c2ccc(O)cc2)oc2c([C@@H]3O[C@H](CO)[C@@H](O)[C@H](O)[C@H]3O)c(O)c([C@@H]3OC[C@H](O)[C@H](O)[C@H]3O)c(O)c12 [Isoschaftoside, isoschaftoside]
Kd (SARS-CoV-2 3CLpro [1]): 11.4 µM
IC50 (SARS-CoV-2 3CLpro [2]): 30.2 µM

COc1ccc(-c2cc(=O)c3c(O)c(OC)c(OC4OC(COC5OC(C)C(O)C(O)C5O)C(O)C(O)C4O)cc3o2)cc1 (centres unmarked) [CMP84]
pIC50 (SARS-CoV-2 3CLpro [3]; [8]): 4.287
IC50 (SARS-CoV-2 3CLpro [3]; [9]): 51.6 µM
Inact.(<6)/Act.(>=6) (SARS-CoV-2 3CLpro [4]): Inact. (Inact.(<6))

O=C(/C=C/c1ccc(O)c(O)c1)O[C@@H]1C[C@@](OC(=O)/C=C/c2ccc(O)c(O)c2)(C(=O)O)C[C@@H](O)[C@@H]1O [MOL007326]
Kd (SARS-CoV-2 3CLpro [1]; [10]): 20.3 µM

O=c1c(O[C@@H]2O[C@H](CO[C@@H]3O[C@H](CO)[C@@H](O)[C@H](O)[C@H]3O)[C@@H](O)[C@H](O)[C@H]2O)c(-c2ccc(O)cc2)oc2cc(O)cc(O)c12 [Kaempferol-3-O-gentiobioside, kaempferol-3-O-gentiobioside]
Kd (SARS-CoV-2 3CLpro [1]; [10]): 2.69 µM
IC50 (SARS-CoV-2 3CLpro [2]; [11]): 35.9 µM

Cc1cc(O)c2c(=O)c3c(O)cc(O)c4c5c(O)cc(O)c6c(=O)c7c(O)cc(C)c8c1c2c(c34)c(c78)c65 [MOL002067]
Kd (SARS-CoV-2 3CLpro [1]): 19.9 µM

O=c1c(O[C@@H]2O[C@H](CO)[C@H](O)[C@H](O)[C@H]2O)c(-c2ccc(O)c(O)c2)oc2cc(O)cc(O)c12 [MOL004368]
Kd (SARS-CoV-2 3CLpro [1]; [10]): 9.98 µM

O=c1c(O)c(-c2ccc(O)cc2)oc2cc(O)cc(O)c12 [MOL000422]
Kd (SARS-CoV-2 3CLpro [1]; [10]): 24.6 µM

O=c1cc(-c2ccc(O)cc2)oc2c([C@@H]3O[C@H](CO)[C@@H](O)[C@H](O)[C@H]3O)c(O)c([C@@H]3O[C@H](CO)[C@@H](O)[C@H](O)[C@H]3O)c(O)c12 [Vicenin-2, vicenin-2]
Kd (SARS-CoV-2 3CLpro [1]): 8.58 µM
IC50 (SARS-CoV-2 3CLpro [2]): 38.9 µM

C[C@@H]1O[C@@H](O[C@H]2[C@H](O[C@H]3CC[C@@]4(C)[C@@H](CC[C@]5(C)[C@H]4CC=C4[C@H]6CC(C)(C)CC[C@]6(C(=O)O[C@@H]6O[C@H](CO[C@@H]7O[C@H](CO)[C@@H](O)[C@H](O)[C@H]7O)[C@@H](O)[C@H](O)[C@H]6O)CC[C@]45C)[C@]3(C)CO)OC[C@H](O)[C@@H]2O)[C@H](O)[C@H](O)[C@H]1O [MOL003034]
Kd (SARS-CoV-2 3CLpro [1]): 10.9 µM

O=c1cc(-c2ccc(O)cc2)oc2cc(O[C@@H]3O[C@H](CO)[C@@H](O)[C@H](O)[C@H]3O)cc(O)c12 [MOL000007, Cosmetin]
HBA [5]: 10
HBD [5]: 6
OB (%) [5]: 9.68%
BBB [5]: -2.26
Caco-2 [5]: -1.08
FASA- [5]: 0.32
NRotB [5]: 4

O=c1c(O[C@@H]2O[C@H](CO)[C@@H](O)[C@H](O)[C@H]2O[C@@H]2O[C@H](CO)[C@@H](O)[C@H](O)[C@H]2O)c(-c2ccc(O)cc2)oc2cc(O)cc(O)c12 [MOL002761]
Kd (SARS-CoV-2 3CLpro [1]; [10]): 12.5 µM

O=c1c(O)c(-c2ccc(O)cc2)oc2c(O)c(O)cc(O)c12 [CMP83]
pIC50 (SARS-CoV-2 3CLpro [3]; [8]): 4.268
IC50 (SARS-CoV-2 3CLpro [3]; [9]): 53.9 µM
Inact.(<6)/Act.(>=6) (SARS-CoV-2 3CLpro [4]): Inact. (Inact.(<6))

O=C1/C(=C\c2ccc(-c3ccccc3)o2)C(c2ccccc2)=NN1c1ccccc1 [CMP10]
pIC50 (SARS-CoV-2 3CLpro [3]; [12]): 4.652
pIC50 (SARS-CoV-2 3CLpro [3]; test set (SARS-CoV-2 3CLpro inhibitors), collected from literature): 4.652
IC50 (SARS-CoV-2 3CLpro [3]; [13]): 22.3 µM
Inact.(<6)/Act.(>=6) (SARS-CoV 3CLpro [6]): Inact. (Inact.(<6))
Inact.(<6)/Act.(>=6) (SARS-CoV-2 3CLpro [4]): Inact. (Inact.(<6))

O=C(/C=C/c1ccc(O)c2c1[C@H](C(=O)O)[C@@H](c1ccc(O)c(O)c1)O2)O[C@H](Cc1ccc(O)c(O)c1)C(=O)O [MOL007113]
Kd (SARS-CoV-2 3CLpro [1]): 15 µM

COc1cc(-c2oc3cc(O)cc(O)c3c(=O)c2O[C@@H]2O[C@H](CO)[C@@H](O)[C@H](O)[C@H]2O)ccc1O [MOL007260]
Kd (SARS-CoV-2 3CLpro [1]; [10]): 9.45 µM

C[C@@H](CC[C@]1(O)O[C@H]2C[C@H]3[C@@H]4CC[C@@H]5C[C@@H](O[C@@H]6O[C@H](CO)[C@H](O)[C@H](O)[C@H]6O[C@@H]6O[C@H](CO)[C@@H](O)[C@H](O)[C@H]6O)CC[C@]5(C)[C@H]4CC[C@]3(C)[C@H]2[C@@H]1C)CO[C@@H]1O[C@H](CO)[C@@H](O)[C@H](O)[C@H]1O [MOL004515]
Kd (SARS-CoV-2 3CLpro [1]): 7.2 µM

C[C@@H]1O[C@@H](O[C@@H]2[C@@H](O)[C@H](OCCc3ccc(O)c(O)c3)O[C@H](CO)[C@H]2OC(=O)/C=C/c2ccc(O)c(O)c2)[C@H](O)[C@H](O)[C@H]1O [MOL003333]
Kd (SARS-CoV-2 3CLpro [1]): 0.409 µM

C[C@@H]1O[C@@H](OC[C@H]2O[C@@H](Oc3c(-c4ccc(O)cc4)oc4cc(O)cc(O)c4c3=O)[C@H](O)[C@@H](O)[C@@H]2O)[C@H](O)[C@H](O)[C@H]1O [MOL002693]
Kd (SARS-CoV-2 3CLpro [1]): 3.63 µM

cyanidol [MOL000002]
HBA [5]: 6
HBD [5]: 5
OB (%) [5]: 1.36%
BBB [5]: -0.51
FASA- [5]: 0.34
NRotB [5]: 1

OC[C@@H](O)[C@@H](O)[C@H](O)[C@H](O)CO [MOL000003, MTL]
HBA [5]: 6
HBD [5]: 6
OB (%) [5]: 17.73%
BBB [5]: -4.07
Caco-2 [5]: -1.58
FASA- [5]: 0.18
NRotB [5]: 5

C[C@@H]1O[C@@H](OC[C@H]2O[C@@H](OCCc3ccc(O)c(O)c3)[C@H](O)[C@@H](O)[C@@H]2OC(=O)/C=C/c2ccc(O)c(O)c2)[C@H](O)[C@H](O)[C@H]1O [MOL003331]
Kd (SARS-CoV-2 3CLpro [1]): 1.21 µM

COc1cc(-c2oc3cc(O)cc(O)c3c(=O)c2O[C@@H]2O[C@H](CO[C@@H]3O[C@@H](C)[C@H](O)[C@@H](O)[C@H]3O)[C@@H](O)[C@H](O)[C@H]2O)ccc1O [Narcissoside, narcissoside]
Kd (SARS-CoV-2 3CLpro [1]; [10]): 10 µM
IC50 (SARS-CoV-2 3CLpro [2]; [11]): 38.1 µM

O=C(O)c1ccccc1-c1ccc(/C=C2\C(=O)N(c3ccccc3)N=C2c2ccccc2)o1 [CMP13, reference compound]
pIC50 (SARS-CoV-2 3CLpro [3]; [12]): 5.4828
IC50 (SARS-CoV-2 3CLpro [3]; [13]): 3.29 µM
Inact.(<6)/Act.(>=6) (SARS-CoV 3CLpro [6]): Inact. (Inact.(<6))
Inact.(<6)/Act.(>=6) (SARS-CoV-2 3CLpro [4]): Inact. (Inact.(<6))
pIC50 (SARS-CoV 3CLpro [7]; from literature IC50): 4.3851
IC50 (SARS-CoV 3CLpro [7]; literature values): 41.2 µM

O=C(/C=C/c1ccc(O)c(O)c1)O[C@H]1[C@H](O)C[C@](O)(C(=O)O)C[C@H]1OC(=O)/C=C/c1ccc(O)c(O)c1 [MOL001878]
Kd (SARS-CoV-2 3CLpro [1]; [10]): 0.047 µM
